Measurements as given in publication PMC9873571, “Plant-specific features of respiratory supercomplex I + III2 from Vigna radiata” (Nature Plants, 2022).

Legend:
[1] = molecular target: T1, V. radiata complex I (CI), NADH dehydrogenase site (Vigna radiata, UniProt A0A1S3V7V2); test: NADH-cytochrome c oxidoreductase activity of purified SC I + III2; assay type: biochemical; settings: 10 µM NADH, 100 µM decylubiquinone, 100 µM equine cyt c, pH 7.4
T1 construct: gene LOC106772405; native complex I, in purified supercomplex I + III2 (NADH) or in washed mitochondrial membranes (dNADH)
T1 sequence (A0A1S3V7V2 28-491): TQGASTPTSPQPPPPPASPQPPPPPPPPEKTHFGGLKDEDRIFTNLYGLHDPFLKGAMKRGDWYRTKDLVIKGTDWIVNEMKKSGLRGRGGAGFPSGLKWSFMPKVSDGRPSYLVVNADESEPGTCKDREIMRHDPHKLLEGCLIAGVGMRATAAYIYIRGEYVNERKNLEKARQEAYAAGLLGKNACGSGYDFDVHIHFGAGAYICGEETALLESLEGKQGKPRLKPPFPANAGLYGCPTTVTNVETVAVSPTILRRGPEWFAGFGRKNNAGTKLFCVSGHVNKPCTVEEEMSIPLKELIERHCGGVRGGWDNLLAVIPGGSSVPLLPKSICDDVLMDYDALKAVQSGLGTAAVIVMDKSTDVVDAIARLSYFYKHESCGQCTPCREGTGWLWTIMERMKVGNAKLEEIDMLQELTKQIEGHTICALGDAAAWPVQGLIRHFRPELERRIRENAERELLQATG
T1 sequence (A0A1S3TQ85 32-746 partner): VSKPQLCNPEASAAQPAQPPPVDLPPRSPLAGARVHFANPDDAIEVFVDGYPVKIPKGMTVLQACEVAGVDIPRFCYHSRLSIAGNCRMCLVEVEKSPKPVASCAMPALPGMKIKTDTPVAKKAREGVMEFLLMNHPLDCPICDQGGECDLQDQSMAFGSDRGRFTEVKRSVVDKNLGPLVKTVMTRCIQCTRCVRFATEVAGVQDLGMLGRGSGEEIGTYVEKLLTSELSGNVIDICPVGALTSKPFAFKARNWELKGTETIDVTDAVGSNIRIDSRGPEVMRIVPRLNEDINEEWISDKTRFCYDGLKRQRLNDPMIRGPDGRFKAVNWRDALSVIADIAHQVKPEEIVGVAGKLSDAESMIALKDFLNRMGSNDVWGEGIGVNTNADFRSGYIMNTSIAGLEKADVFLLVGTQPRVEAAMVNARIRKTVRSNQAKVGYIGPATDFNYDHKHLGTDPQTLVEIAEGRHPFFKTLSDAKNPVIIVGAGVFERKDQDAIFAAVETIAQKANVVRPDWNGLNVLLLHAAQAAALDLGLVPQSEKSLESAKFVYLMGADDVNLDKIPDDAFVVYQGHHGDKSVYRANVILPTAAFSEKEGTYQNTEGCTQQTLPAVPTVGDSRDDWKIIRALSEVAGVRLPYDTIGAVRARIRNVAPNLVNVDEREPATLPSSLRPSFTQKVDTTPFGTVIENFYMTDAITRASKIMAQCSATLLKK
T1 sequence (A0A1S3U769 25-251 partner): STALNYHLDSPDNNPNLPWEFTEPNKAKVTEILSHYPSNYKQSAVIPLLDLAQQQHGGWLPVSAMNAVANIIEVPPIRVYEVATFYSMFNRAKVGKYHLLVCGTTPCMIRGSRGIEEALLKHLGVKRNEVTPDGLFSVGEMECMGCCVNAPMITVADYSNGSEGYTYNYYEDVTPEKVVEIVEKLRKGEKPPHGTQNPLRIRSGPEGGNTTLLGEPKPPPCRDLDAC

[2] = molecular target: T2, V. radiata SC I + III2 (complex I, quinone-binding site) (Vigna radiata, UniProt A0A1S3U8J5+E9KZL0+E9KZN6); test: NADH-cytochrome c oxidoreductase activity, A550; assay type: biochemical; settings: 20 mM HEPES pH 7.4, 50 mM NaCl, 10% glycerol, 100 µM decylubiquinone, 100 µM equine cyt c, 10 µM NADH, 4 μM KCN
T2 construct: gene nad7; native complex I (14 core + 34 accessory subunits) in supercomplex I + III2, from etiolated hypocotyl mitochondria, digitonin-extracted, amphipol A8-35 stabilized, SEC purified; assayed as NADH-cyt c oxidoreductase; nad1 and NDUS2 transcripts RNA-edited
T2 sequence (E9KZN6 entry or part of it): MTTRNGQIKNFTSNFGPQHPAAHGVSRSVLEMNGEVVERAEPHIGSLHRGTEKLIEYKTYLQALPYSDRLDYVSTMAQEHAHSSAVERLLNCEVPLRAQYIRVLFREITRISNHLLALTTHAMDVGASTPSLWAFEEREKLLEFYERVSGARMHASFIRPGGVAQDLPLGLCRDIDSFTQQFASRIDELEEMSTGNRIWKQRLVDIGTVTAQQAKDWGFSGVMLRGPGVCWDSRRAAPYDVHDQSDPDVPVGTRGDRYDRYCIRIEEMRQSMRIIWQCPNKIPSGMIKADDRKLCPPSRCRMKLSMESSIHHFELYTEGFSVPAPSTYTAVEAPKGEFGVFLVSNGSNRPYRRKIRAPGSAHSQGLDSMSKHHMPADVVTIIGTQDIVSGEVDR
T2 sequence (E9KZL0 entry or part of it): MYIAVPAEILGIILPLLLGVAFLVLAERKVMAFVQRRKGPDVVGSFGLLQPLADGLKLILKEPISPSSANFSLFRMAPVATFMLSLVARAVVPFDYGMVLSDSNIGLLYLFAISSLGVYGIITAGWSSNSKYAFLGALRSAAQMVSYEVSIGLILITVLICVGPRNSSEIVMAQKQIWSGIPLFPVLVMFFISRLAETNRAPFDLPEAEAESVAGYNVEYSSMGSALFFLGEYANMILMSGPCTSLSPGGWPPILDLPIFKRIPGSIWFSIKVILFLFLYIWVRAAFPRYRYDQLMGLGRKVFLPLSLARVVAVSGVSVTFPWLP
T2 sequence (A0A1S3U8J5 entry or part of it): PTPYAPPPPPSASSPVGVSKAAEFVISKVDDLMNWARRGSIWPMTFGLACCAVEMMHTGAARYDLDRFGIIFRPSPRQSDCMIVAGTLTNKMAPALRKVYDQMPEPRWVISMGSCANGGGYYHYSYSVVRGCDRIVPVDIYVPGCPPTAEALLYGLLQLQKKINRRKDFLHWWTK

| SMILES | NADH-cytochrome c oxidoreductase activity of purified SC I + III2 [1] | inhibition at 20 μM [2] |
| --- | --- | --- |
| NC(=O)C1=CN([C@@H]2O[C@H](COP(=O)(O)OP(=O)(O)OC[C@H]3O[C@@H](n4cnc5c(N)ncnc54)[C@H](O)[C@@H]3O)[C@@H](O)[C@H]2O)C=CC1 [NADH] | The final biochemical sample showed the expected NADH-cyt c oxidoreductase activity | – |
| C/C=C(\C)[C@H](O)[C@H](C)/C=C(C)/C=C/C/C(C)=C/Cc1nc(OC)c(OC)c(O)c1C [piericidin A] | – | inhibited by CI and CIII2 inhibitors piericidin A and antimycin A, respectively |
